Results as given in US20250057826A1, “WEEKLY REGIMEN FOR HIV” (Gilead Sciences, Inc., priority 2023, published 2025).

How the values were obtained:
MT-4 cells = assay: in vitro protein-adjusted 95% effective concentration derived from MT-4 cells (inhibitory quotient 4); assay type: cell-based; details: 4-fold greater than in vitro protein-adjusted 95% effective concentration from MT-4 cells
[1] = pharmacokinetics following single-dose administration of oral LEN 50-1800 mg; assay type: in vivo; details: single-dose oral LEN 50-1800 mg
[2] = 2-compartment LEN population pharmacokinetic (PopPK) model from pooled clinical PK data (IV/oral/SC LEN); assay type: in vivo, human; details: column HTE
Source text: PK data were pooled from several clinical studies in healthy participants and people with HIV-1 who received intravenous (IV)/oral/SC LEN and a 2-compartment LEN population pharmacokinetic (PopPK) model with first-order absorption and linear elimination was built to simulate various weekly dosing regimens (loading+maintenance doses) that can achieve efficacious LEN concentrations rapidly and be maintained through the dosing interval. Various scenarios including 1-3 weeks of missed oral dosing were simulated to evaluate the forgiveness window; these simulations were performed with the PopPK model incorporating variability and covariate effects. The model pharmacokinetic parameters for lenacapavir are provided in Table 1 where CL=clearance; Fpo=oral bioavailability; Fsc=SC bioavailability; GI=gastrointestinal; HTE=heavily treatment experienced; IIV=interindividual variability; Ka=absorption rate constant; Kdir=direct absorption rate constant; Ktr=transit absorption rate constant; PK=pharmacokinetic; Q=intercompartmental CL; Vc=volume of central compartment; Vp=volume of peripheral compartment.

HIV-1 = assay: virologic suppression in Phase 2/3 clinical studies; assay type: in vivo, human; details: at mean trough concentration of 15.5 ng/mL (IQ4)

## CC(C)(C#Cc1ccc(-c2ccc(Cl)c3c(NS(C)(=O)=O)nn(CC(F)(F)F)c23)c([C@H](Cc2cc(F)cc(F)c2)NC(=O)Cn2nc(C(F)(F)F)c3c2C(F)(F)[C@@H]2C[C@H]32)n1)S(C)(=O)=O [lenacapavir, N—((S)-1-(3-(4-chloro-3-(methylsulfonamido)-1-(2,2,2-trifluoroethyl)-1H-indazol-7-yl)-6-(3-methyl-3-(methylsulfonyl)but-1-yn-1-yl)pyridin-2-yl)-2-(3,5-difluorophenyl)ethyl)-2-((3bS,4aR)-5,5-difluoro-3-(trifluoromethyl)-3b,4,4a,5-tetrahydro-1H-cyclopropa[3,4]cyclopenta[1,2-c]pyrazol-1-yl)acetamide]
MT-4 cells
  inhibitory quotient 4 (IQ4) mean trough concentration: 15.5 ng/mL
[1]; human, plasma
  half-life: 10 to 13 days
[1]
  oral LEN exposure increase with dose: less than dose proportionally
[2]; PopPK covariate effect
  θ11: dose effect on Fpo: −0.414
  θ16: HV effect on Vp: 1.35
  θ19: pharmacoenhancer/booster effect on Fpo: 0.534
  θ20: SC 150 mg/mL effect on Vp: −0.795
  θ21: SC 150 mg/mL effect on Ktr: 0.433
[2]; PopPK model parameter, SC bioavailability
  θ10: Fsc relative to IV: 1.02
[2]; PopPK model parameter, SC
  θ6: SC Ktr: 0.00202 h⁻¹
  θ7: SC Kdir: 0.0038 h⁻¹
  θ8: SC fraction for direct absorption: 0.421
[2]; PopPK model parameter
  θ2: Vc: 67.9 L
  θ4: Vp: 908 L
  θ5: Q: 41.2 L/h
[2]; PopPK model parameter, oral bioavailability
  θ9: Fpo relative to IV: 0.0627
[2]; PopPK model parameter, oral
  θ3: PO Ka: 0.0286 h⁻¹
[2]; PopPK residual error
  σ1: residual proportion variability: 27.3% CV
  σ2: residual additive: 0.05 ng/mL
[2]; fixed allometric exponent
  θ15: weight effect on Vc and Vp: 1
[2]; human, plasma, other: pooled intravenous, oral and subcutaneous, PopPK model parameter, read-out: θ1: CL (converted)
  clearance: 60.3 mL/min
[2]; interindividual variability
  ω11: IIV on CL: 43.2 % CV
  ω22: IIV on Vc: 0% CV
  ω33: IIV on Vp: 85.4 % CV
  ω44: IIV on Ktr: 32.4 % CV
  ω55: IIV on Ka: 78.4 % CV
  ω66: IIV on Kdir: 0% CV
  ω77: IIV on Fsc: 38.9% CV
HIV-1
  virologic suppression: high rates of virologic suppression
